Results published in PMC3679022, “A Cancer Specific Cell-Penetrating Peptide, BR2, for the Efficient Delivery of an scFv into Cancer Cells” (PLoS ONE, 2013).

Columns and labels:
[1] = test system: cancer cells (HeLa, HCT116 and B16/F10); assay: Confocal laser scanning microscopy of FITC-labeled peptide uptake, cancer cells; format: cell-based, human, mouse; conditions: FITC-labeled peptide 5 µM, 30 min, 37°C, live unfixed cells
Method: To investigate the cell-penetrating ability and the intracellular distribution of the internalized peptides, live confocal microscopy was performed on three cancer lines (HeLa, HCT116 and B16/F10) and three normal cell lines (HaCat, BJ and NIH 3T3). Briefly, cells (2×10^5) were plated on a glass coverslip placed in a 6-well plate, grown overnight, and then incubated with FITC-labeled peptides (5 µM for each cell line) for 30 min. The cells were then rinsed three times with phosphate buffered saline (PBS, pH 7.4), and mounted on microscope slides with fluorescence mounting solution (Dako Corp, Carpinteria, CA). Colocalization of BR2 with lysosomes was observed by using LysoTracker Red DND-99 (Molecular Probe, Eugene, OR). To avoid the effects of fixation artifacts, involving both methanol and paraformaldehyde, cells were not fixed, [27]. The distribution of FITC-labeled peptides was analyzed using a confocal scanning laser Zeiss LSM 510 microscope (Jena, Germany) equipped with a 40× and 20× objective. Fluorophores were excited with an argon laser (488 nm) for FITC and a HeNe laser (543 nm) for LysoTracker Red.
(B,C) In vitro cytotoxicity of peptides.

[2] = test system: cancer cells (HeLa, HCT116 and B16/F10); format: cell-based, human, mouse; conditions: flow cytometry
Method: (§1) To evaluate the internalization of FITC-labeled peptides, HeLa cells were seeded onto 12-well plates at a density of 2×10^5 cells per well and incubated for 24 h. FITC-labeled peptides, at various concentrations ranging from […], were then incubated with the cells for 30 min at 37°C. To compare the cellular uptake of peptides, cancer and normal cells were treated with FITC-labeled peptides (each, 10 µM) and incubated for 30 min at 37°C. Following the incubation, cells were washed three times with ice-cold PBS to remove excess extracellular complexes. Next, the cells were treated with trypsin (1 mg/ml) for 10 min to remove any remaining peptides bound to the cell surface. After trypsinization, the cells were collected by centrifugation (1,000×g for 5 min), resuspended with 500 µl ice-cold 2% FBS/PBS containing propidium iodide (PI), and then immediately analyzed (10,000 events/sample) by fluorescence activated cell sorting (FACS).
(§2) For all of these experimental conditions, flow cytometry analyses were performed with live cells using a Becton Dickinson FACSCalibur flow cytometer (BD Biosciences, San Diego, CA). In each case, the fluorescence of 10,000 viable cells was acquired. Viable cells were gated based on a sideward and forward scatter. […] The statistical significance was evaluated by Student’s t-test at a 95% confidence interval. […]

[3] = test system: normal cells (HaCat, BJ and NIH 3T3); assay: Flow cytometry of FITC-labeled peptide uptake, normal cells; format: cell-based, human, mouse; conditions: FITC-labeled peptide 10 µM, 30 min, 37°C, trypsin 1 mg/ml 10 min before FACS, 10,000 events
Method: as §1, §2

[4] = test system: cancer cell lines (HeLa, HCT116 and B16/F10); assay: In vitro cytotoxicity assay (LDH leakage), cancer cell lines; conditions: 100 µM peptide, 24 h, 37°C; 0.2% Triton X-100 = 100%; n = 3
Method: The cytotoxicity of peptides to mammalian cells was investigated by assessing the release of lactate dehydrogenase (LDH) from cancer and normal cells. The amount of LDH released from damaged cells into the supernatant was measured using the Cytotoxicity Detection Kit (Roche Applied Science, Germany) according to the manufacturer’s instructions. In brief, cells were plated onto 96-well microplates (1×10^4 cells per well) in complete DMEM supplemented with 10% FBS and incubated overnight at 37°C to allow for attachment and spreading of cells. After 24 h of incubation, cells were treated with various concentrations of peptides (0–100 µM) and incubated for another 24 h at 37°C. The extracellular medium from each well was transferred to a new microplate and incubated for 10 min with 100 µl/well reaction mixture, followed by a stop solution. Absorbance was measured at 490 nm by using an ELISA plate reader. LDH release from cells lysed with 0.2% Triton X-100 in PBS was defined as 100% leakage and LDH release from untreated cells as 0% leakage.
(B,C) In vitro cytotoxicity of peptides. (B) Membrane disturbance was measured by lactate dehydrogenase (LDH) leakage from the indicated cell lines 24 h after peptide treatment. LDH leakage from cells seeded in a 96-well plate at 10,000 cells/well was measured after exposure to 1, 2, 5, 10, 20, 50 or 100 µM peptides for 24 h. […]

For RAGLQFPVGRLLRRLLR [BR2], which “cellular uptake (confocal microscopy)” value [1] is on record?
Its value is “readily internalized”.

And the “transduction efficiency into cancer cells versus normal cells” value [2]?
Its value is “about 4 fold”.

What about the “percentage of fluorescence-positive cells (cells that internalized peptide)” value [3] of the same sequence?
The value was 23–34%.

What about the LDH leakage [4] of the same sequence?
Its LDH leakage is 40–60%.
